In patent EP0862417B1, “PHARMACEUTICAL COMPOSITION FOR TOPICAL APPLICATION” (Reckitt Benckiser Healthcare (UK) Limited, priority 1995, dated 1997):

Test: Supersaturation potential of a triclosan solution (calculated from solubilities)
Format: physicochemical
Conditions: skin pH e.g. pH 5.5; 200ppm triclosan solution at pH 10 as starting composition
Protocol: The supersaturation potential of a solution at pH 10 containing 200ppm triclosan was calculated by dividing the concentration of triclosan in that solution by the concentration of triclosan in the solutions at lower pHs.

## Oc1cc(Cl)ccc1Oc1ccc(Cl)cc1Cl [triclosan]
  degree of supersaturation achievable at a skin pH: 30 X
